From patent US8013053B2, “Water-based inks for ink-jet printing” (Kao Corporation, priority 2005, dated 2011) come the findings set out here.

The nature of series [1]: Solubility of nonionic organic compound in water. It is filed as physicochemical. The note with it: for solubility in 100 g of water: 25° C.; for Solubility: in 100 g of water at 25° C. The text has this:
(3) Method of Measuring Solubility of Nonionic Organic Compound

Series [2] can be described thus: Surface tension of water containing nonionic organic compound. It is filed as physicochemical. The conditions noted are these: 25° C.; for Surface tension: water containing 0.001% by weight of the nonionic organic compound. The text has this: (4) Method of Measuring Surface Tension of Water Containing Nonionic Organic Compound

As for `CCCCCCCCC(O)CO` (stereo not drawn) [1,2-decanediol], in series [1], the “solubility in 100 g of water” value turned out to be 0.055 g and the Solubility is 0.055 g/100 g. In series [2], the “surface tension of water containing 0.001% by weight of the nonionic organic compound” value amounted to 55 mN/m and the Surface tension is reported as 55 mN/m.
Take `CCCCCCCCCCC(O)CO` (stereo not drawn) [1,2-dodecanediol]: in series [1], the “solubility in 100 g of water” value was 0.001 g and the Solubility stood at 0.001 g/100 g. Also, in series [2], the “surface tension of water containing 0.001% by weight of the nonionic organic compound” value was 47.1 mN/m and the Surface tension was found to be 47.1 mN/m.
`CCCCC(O)CO` (stereo not drawn) [1,2-hexanediol, reference compound]: the Solubility entry in series [1] is listed as “≧6 g/100 g”. In series [2], this compound gave a Surface tension of 71.2 mN/m.
As to `CCCCCCC(O)CO` (stereo not drawn) [1,2-octanediol], in series [1], the “solubility in 100 g of water” value was determined as 0.20 g and the Solubility is reported as 0.2 g/100 g. Moreover, in series [2], the “surface tension of water containing 0.001% by weight of the nonionic organic compound” value was 65 mN/m and the Surface tension is reported as 65 mN/m.
In turn, `OCCCCCCCCO` [1,8-octanediol, reference compound] showed a Solubility in series [1] of 1 g/100 g. This compound registered a Surface tension in series [2] of 70.7 mN/m.
Consider `CCCCC(CC)COCC(O)CO` (stereo not drawn) [2-ethylhexyl monoglyceryl ether], for which, in series [1], the “solubility in 100 g of water” value is recorded as 0.15 g and the Solubility was determined as 0.15 g/100 g. Also, in series [2], the “surface tension of water containing 0.001% by weight of the nonionic organic compound” value is on record as 62 mN/m and the Surface tension is on record as 62 mN/m.
As for `CC(C)CCCCCCCOCC(O)CO` (stereo not drawn) [Isodecyl monoglyceryl ether], in series [1], the “solubility in 100 g of water” value turned out to be 0.05 g and the Solubility is listed as 0.05 g/100 g. In series [2], the “surface tension of water containing 0.001% by weight of the nonionic organic compound” value is listed as 57.8 mN/m and the Surface tension turned out to be 57.8 mN/m.
Regarding Decanoic acid monogriceride, in series [2], the “surface tension of water containing 0.001% by weight of the nonionic organic compound” value was determined as 65 mN/m and the Surface tension is 65 mN/m.
As to Lauric acid monogriceride, in series [1], the “solubility in 100 g of water” value is listed as 0.005 g and the Solubility turned out to be 0.12 g/100 g. Besides, in series [2], the “surface tension of water containing 0.001% by weight of the nonionic organic compound” value is reported as 63 mN/m and the Surface tension stood at 63 mN/m.
